Test results from US20250352615A1, “COMPOSITIONS AND METHODS FOR THE MODULATION OF PIEZO1 AND TRPV4” (Duke University, priority 2021, published 2025).

What was measured:
Piezo1 = biological target: T1, Piezo1 (Mus musculus, UniProt E2JF22); experiment: Calcium imaging of Yoda1 (Piezo1)-mediated [Ca2+]i in pancreatic acini; assay type: cell-based; settings: pancreatic acini, bath calcium 2 mM, Yoda1 25 μM
T1 construct: endogenous in cells; host or cells: freshly isolated mouse pancreatic acini (WT = Piezo1 fl/fl on a C57BL/6J background)
T1 sequence (E2JF22 whole entry): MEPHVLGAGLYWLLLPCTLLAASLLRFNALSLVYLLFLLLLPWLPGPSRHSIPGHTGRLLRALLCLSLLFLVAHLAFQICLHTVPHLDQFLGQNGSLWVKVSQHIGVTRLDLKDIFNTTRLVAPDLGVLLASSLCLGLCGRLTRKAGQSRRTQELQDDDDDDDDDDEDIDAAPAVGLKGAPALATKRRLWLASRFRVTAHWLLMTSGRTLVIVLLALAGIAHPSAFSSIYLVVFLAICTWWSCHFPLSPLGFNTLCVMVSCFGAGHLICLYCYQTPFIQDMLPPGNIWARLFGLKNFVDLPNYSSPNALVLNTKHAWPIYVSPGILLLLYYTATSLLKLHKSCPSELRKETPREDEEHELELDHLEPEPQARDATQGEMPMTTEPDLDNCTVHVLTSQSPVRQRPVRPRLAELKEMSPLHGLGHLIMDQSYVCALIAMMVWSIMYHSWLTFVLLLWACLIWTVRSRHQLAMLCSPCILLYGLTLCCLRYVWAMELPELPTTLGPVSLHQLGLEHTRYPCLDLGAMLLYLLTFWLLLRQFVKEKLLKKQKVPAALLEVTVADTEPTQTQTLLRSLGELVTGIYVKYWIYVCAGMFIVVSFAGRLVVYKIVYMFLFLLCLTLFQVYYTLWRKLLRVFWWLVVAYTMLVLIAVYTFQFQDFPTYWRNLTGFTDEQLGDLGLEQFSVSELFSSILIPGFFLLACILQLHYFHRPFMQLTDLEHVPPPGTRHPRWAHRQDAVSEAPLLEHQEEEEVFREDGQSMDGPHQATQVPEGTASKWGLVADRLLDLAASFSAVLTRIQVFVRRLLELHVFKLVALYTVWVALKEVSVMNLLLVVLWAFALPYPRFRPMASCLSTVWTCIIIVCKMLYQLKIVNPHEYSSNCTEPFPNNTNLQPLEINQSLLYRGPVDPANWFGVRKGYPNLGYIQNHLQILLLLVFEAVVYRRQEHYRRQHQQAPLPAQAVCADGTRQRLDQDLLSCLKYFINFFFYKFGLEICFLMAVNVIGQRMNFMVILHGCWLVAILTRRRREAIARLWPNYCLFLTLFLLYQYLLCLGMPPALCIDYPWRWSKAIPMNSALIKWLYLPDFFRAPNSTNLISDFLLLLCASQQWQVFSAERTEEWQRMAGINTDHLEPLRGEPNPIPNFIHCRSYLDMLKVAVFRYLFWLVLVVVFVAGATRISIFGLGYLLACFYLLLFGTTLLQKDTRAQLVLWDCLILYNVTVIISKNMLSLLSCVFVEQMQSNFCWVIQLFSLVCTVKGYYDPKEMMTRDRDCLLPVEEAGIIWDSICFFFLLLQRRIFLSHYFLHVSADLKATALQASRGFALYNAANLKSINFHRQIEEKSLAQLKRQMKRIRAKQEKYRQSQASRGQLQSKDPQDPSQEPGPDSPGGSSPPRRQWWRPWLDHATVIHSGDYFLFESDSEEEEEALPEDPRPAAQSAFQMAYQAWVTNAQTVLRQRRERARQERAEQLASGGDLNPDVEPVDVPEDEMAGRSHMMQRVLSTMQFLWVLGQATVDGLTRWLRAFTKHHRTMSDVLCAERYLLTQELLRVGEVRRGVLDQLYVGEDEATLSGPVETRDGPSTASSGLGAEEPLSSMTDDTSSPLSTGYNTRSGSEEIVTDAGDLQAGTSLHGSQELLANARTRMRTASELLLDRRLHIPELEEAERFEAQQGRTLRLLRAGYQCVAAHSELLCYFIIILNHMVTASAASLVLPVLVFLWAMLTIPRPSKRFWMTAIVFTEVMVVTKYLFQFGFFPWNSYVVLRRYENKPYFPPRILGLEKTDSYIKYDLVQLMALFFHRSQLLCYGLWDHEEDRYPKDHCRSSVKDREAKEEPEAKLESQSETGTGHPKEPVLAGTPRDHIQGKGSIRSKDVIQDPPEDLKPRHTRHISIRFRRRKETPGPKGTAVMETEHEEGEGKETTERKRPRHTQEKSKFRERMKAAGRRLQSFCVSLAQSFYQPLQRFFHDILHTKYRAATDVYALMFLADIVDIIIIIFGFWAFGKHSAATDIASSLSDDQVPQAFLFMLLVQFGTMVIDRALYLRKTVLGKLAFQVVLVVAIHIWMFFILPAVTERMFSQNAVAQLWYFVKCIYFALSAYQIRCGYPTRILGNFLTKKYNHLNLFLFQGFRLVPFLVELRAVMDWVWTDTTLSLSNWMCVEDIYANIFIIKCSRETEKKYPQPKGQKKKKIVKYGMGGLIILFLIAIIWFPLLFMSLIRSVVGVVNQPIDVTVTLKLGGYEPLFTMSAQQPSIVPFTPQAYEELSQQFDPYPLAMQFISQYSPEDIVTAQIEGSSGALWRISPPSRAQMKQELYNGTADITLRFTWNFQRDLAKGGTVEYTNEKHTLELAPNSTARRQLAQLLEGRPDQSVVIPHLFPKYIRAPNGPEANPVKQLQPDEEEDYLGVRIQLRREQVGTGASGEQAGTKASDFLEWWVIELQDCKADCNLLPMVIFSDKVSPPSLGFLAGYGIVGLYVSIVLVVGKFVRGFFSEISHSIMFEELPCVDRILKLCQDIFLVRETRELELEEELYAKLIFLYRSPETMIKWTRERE
Experimental: (§1) Mouse pancreatic acini were isolated using a standard collagenase digestion protocol. Isolated acini were plated on a thin-layered, Matrigel-coated, glass-bottom, culture plate (MatTek, P35G-0-14-C). Freshly isolated acini were used in each experiment.
(§2) Calcium imaging in pancreatic acini was performed as previously described. The chemicals used in calcium imaging experiments included the following: Yoda1 (Tocris; 5586), GsMTx4 (Abcam; ab141871), 5′,6′-EET (Santa Cruz Biotechnology; sc-221066), AA (Millipore Sigma; A3611), HC067047 (Tocris; 4100), GSK1016790A (Millipore Sigma; G0798), RN1734 (Tocris; 3746), AACOCF3 (Tocris; 1462), YM26734 (Tocris; 2522), GF109203X (Tocris; 0741), and CCK8 (Sigma-Aldrich).

TRPV4 = biological target: T2, TRPV4 (Mus musculus, UniProt Q9EPK8); experiment: Calcium imaging of TRPV4-mediated [Ca2+]i in pancreatic acini (agonists, shear stress, Yoda1 sustained phase); assay type: cell-based; settings: Yoda1
T2 construct: endogenous in cells; host or cells: freshly isolated mouse pancreatic acini (C57BL/6J WT)
T2 sequence (Q9EPK8 whole entry): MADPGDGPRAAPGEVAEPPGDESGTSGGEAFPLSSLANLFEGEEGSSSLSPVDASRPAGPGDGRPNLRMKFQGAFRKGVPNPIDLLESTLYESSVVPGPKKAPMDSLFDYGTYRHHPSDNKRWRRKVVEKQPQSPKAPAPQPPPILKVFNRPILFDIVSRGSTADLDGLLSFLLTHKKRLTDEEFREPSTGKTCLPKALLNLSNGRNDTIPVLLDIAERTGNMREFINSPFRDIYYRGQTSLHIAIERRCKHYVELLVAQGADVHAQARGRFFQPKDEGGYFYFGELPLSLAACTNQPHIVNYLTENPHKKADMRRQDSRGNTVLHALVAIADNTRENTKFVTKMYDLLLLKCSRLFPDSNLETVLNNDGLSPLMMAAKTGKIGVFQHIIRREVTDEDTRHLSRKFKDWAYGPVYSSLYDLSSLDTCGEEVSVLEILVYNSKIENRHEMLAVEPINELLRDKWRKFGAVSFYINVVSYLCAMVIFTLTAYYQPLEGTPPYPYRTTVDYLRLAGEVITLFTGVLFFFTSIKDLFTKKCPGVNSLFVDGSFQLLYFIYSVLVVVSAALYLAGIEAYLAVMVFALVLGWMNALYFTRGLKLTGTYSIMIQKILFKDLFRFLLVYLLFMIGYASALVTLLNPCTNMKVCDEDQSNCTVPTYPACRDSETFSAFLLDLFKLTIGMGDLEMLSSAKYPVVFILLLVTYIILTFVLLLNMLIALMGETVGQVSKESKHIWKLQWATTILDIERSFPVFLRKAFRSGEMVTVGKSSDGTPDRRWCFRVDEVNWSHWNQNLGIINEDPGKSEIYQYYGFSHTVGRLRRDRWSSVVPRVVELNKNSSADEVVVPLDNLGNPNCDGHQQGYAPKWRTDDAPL
Experimental: as §1
Parallel-plate fluid flow chambers (μ-Slide I 0.4 Luer, and μ-Slide I 0.2 Luer from Ibidi GmbH) were used to measure the shear stress-induced changes in intracellular calcium, mitochondrial depolarization, and trypsin activation. The constant flow rate with shear stress (T) was determined as follows: τ=η×[…] φ for μ-Slide I 0.4 Luer and τ=η×330.4 φ for μ-Slide I 0.2 Luer, where η=viscosity of the medium and φ=flow rate (according to the manufacturer's instructions, Ibidi).
as §2

pancreatic acini = experiment: Mitochondrial depolarization in pancreatic acini (TMRE); assay type: cell-based, mouse; settings: Yoda1 50 μM
Experimental: Live-cell mitochondrial depolarization was analyzed using the mitochondrial labeling dye, TMRE. Isolated acini were plated on a thin-layered, Matrigel-coated, glass-bottom culture plate with DMEM/F12 and 10% FBS media and placed in a CO2 incubator for 1 hr at 37° C. After 1 hr, the acini were incubated with TMRE (200 nM) in the bath buffer containing 140 mM NaCl, 4.7 mM KCl, 2.0 CaCl2, 1 mM MgCl2, 10 mM HEPES, and 10 mM glucose (pH adjusted to 7.4 with NaOH) for 30 minutes. The TMRE dye was washed and replaced with fresh bath buffer. The images were captured with a Zeiss Axio observer Z1 microscope with MetaMorph software (Molecular Devices) at intervals of 600 ms. TMRE was excited at 540-600 nm and emission collected at 585-675 nm. Carbonyl cyanide 4-(trifluoromethoxy) phenylhydrazone (FCCP), which uncouples the oxidative phosphorylation process and depolarizes mitochondria, was used as a positive control. A maximum of 2 mitochondrial puncta were taken per acinar cell.

human PSCs = experiment: Human PSC activation and fibrogenic response (fat droplets, cell shape, ECM mRNA and immunostaining); assay type: cell-based
Experimental: Mouse and human PSCs were isolated using collagenase digestion. Modified Krebs Henseleit Buffer (KHB) solution (100 mL) was prepared as previously described by Romac et al., Nat. Commun. 9(1):1715 (2018). Pancreatic tissue was digested with 2 mg of collagenase NB 8 (SERVA, catalog 17456) dissolved in 10 mL of modified KHB solution containing 1 mg soybean trypsin inhibitor (SBTI 1-S; Millipore Sigma, catalog T9003) and 20 mg BSA (Thermo Fisher Scientific; BP1600-100). Digestion solution (5 mL) was used to inflate the pancreas. Pancreas with 5 mL of digestion solution was incubated in a shaking water bath for 10 minutes at 37° C. The solution was then discarded. The pancreas tissue was cut into small pieces and digested with fresh 5 mL digestion buffer. Tissue was incubated in a shaking water bath for 40 minutes at 37° C. The cells were then separated from tissue by pipetting up-down with a 10 mL pipette and passed sequentially through a 70 μm and a 40 μm cell strainer. The filtrate was centrifuged at 150×g for 3 minutes at room temperature. The cells were washed with 10 mL Leibovitz's media (Thermo Fisher Scientific, catalog 11415-064), passed through a 20 μm filter, and centrifuged at 80×g for 3 minutes at room temperature. The supernate was removed, and isolated stellate cells were plated on a thin-layered Matrigel-coated glass bottom culture plate (MatTek, P35G-0-14-C). Before plating the cells, Matrigel solution (Corning, catalog 354234) at a ratio of 1.5:100 DMEM/F12 (Thermo Fisher Scientific, catalog 11330-032) was poured onto the culture plate and incubated for 2 hr at 37° C. to form a thin layer of Matrigel coating. Matrigel mixture was removed, and the plate was washed with PBS before cells were plated. Cell culture media, DMEM/F12 with 5% FBS was used for mouse stellate cells. Fresh, human pancreatic tissue was digested with collagenase as described above with modifications. Collagenase (2.5 mg) in 10 mL of modified KHB solution was used for digestion. The digested tissues were filtered through a 100 μm cell strainer. The cells were cultured with DMEM/F12 with 10% FBS in a Matrigel-coated plate. After 24 hr, the cell media was replaced with fresh media to remove unattached and dead cells. After 2 days, cells were immunostained for GFAP and used for experiments. Perinuclear fat droplets were stained with BODIPY 493/503 (4,4-Difluoro-1,3,5,7,8-Pentamethyl-4-Bora-3a,4a-Diaza-s-Indacene; Invitrogen, catalog D3922) to confirm stellate cell quiescence. The cell viability following Yoda1 treatment was analyzed using the Live/Dead cell imaging kit (Thermo Fisher Scientific, catalog R37601). RNAs were isolated using the RiboPure Kit (Invitrogen, catalog AM1924) according to manufacturer's instructions.
Fluid shear stress and mechanical pushing applied to stellate cells were achieved as previously described by Wang et al., J. Clin. Invest. 126(12): 4527-4536 (2016). Parallel-plate fluid flow chambers (μ-Slide I 0.4 Luer, or μ-Slide I 0.2 Luer from Ibidi) were used for fluid shear stress experiments. The fluid shear stress (T) was calculated using the formula: τ=η×[…] φ for μ-Slide I 0.4 Luer and τ=η×330.4 φ for μ-Slide I 0.2 Luer, where r represents viscosity of the medium and φ represents flow rate (according to the manufacturer's instructions, Ibidi). Mechanical pushing was achieved by applying a blunt borosilicate glass pipette once to the cell membrane with a deflection of 2-3 μm for 1 second using a micromanipulator (World Precision Instruments).
Mouse and human PSCs were washed with PBS (pH 7.4) and fixed with 4% paraformaldehyde for 10 minutes at room temperature. The fixed cells were treated with 0.1% Triton X-100. […]

PSCs = experiment: PSC viability (Live/Dead Cell Imaging Kit); assay type: cell-based; settings: Yoda1 25 μM for 2 hr
Experimental: Mouse and human PSCs were isolated using collagenase digestion. Modified Krebs Henseleit Buffer (KHB) solution (100 mL) was prepared as previously described by Romac et al., Nat. Commun. 9(1):1715 (2018). Pancreatic tissue was digested with 2 mg of collagenase NB 8 (SERVA, catalog 17456) dissolved in 10 mL of modified KHB solution containing 1 mg soybean trypsin inhibitor (SBTI 1-S; Millipore Sigma, catalog T9003) and 20 mg BSA (Thermo Fisher Scientific; BP1600-100). Digestion solution (5 mL) was used to inflate the pancreas. Pancreas with 5 mL of digestion solution was incubated in a shaking water bath for 10 minutes at 37° C. The solution was then discarded. The pancreas tissue was cut into small pieces and digested with fresh 5 mL digestion buffer. Tissue was incubated in a shaking water bath for 40 minutes at 37° C. The cells were then separated from tissue by pipetting up-down with a 10 mL pipette and passed sequentially through a 70 μm and a 40 μm cell strainer. The filtrate was centrifuged at 150×g for 3 minutes at room temperature. The cells were washed with 10 mL Leibovitz's media (Thermo Fisher Scientific, catalog 11415-064), passed through a 20 μm filter, and centrifuged at 80×g for 3 minutes at room temperature. […] The cell viability following Yoda1 treatment was analyzed using the Live/Dead cell imaging kit (Thermo Fisher Scientific, catalog R37601). […]

Compound: Clc1cccc(Cl)c1CSc1nnc(-c2cnccn2)s1 [Yoda1]
- [Ca2+]i response to Yoda1 (Piezo1): initial transient Ca^2+ rise, followed by sustained intracellular calcium elevation
- [Ca2+]i response in acini from TRPV4-KO mice (TRPV4): only transient elevation in [Ca^2+]i
- mitochondrial depolarization in Piezo1aci-KO cells (pancreatic acini): did not depolarize mitochondria
- rate of mitochondrial depolarization compared with CCK (10 nM) (pancreatic acini): occurred at a higher rate than that induced with CCK
- TMRE fluorescence intensity (mitochondrial depolarization) (pancreatic acini; WT acini): significantly decreased TMRE fluorescence intensity
- time to mitochondrial depolarization after application (pancreatic acini; CCK 10 nM): ≤ 3 min
- Fibronectin, collagen type I, and Piezo1 mRNA levels (human PSCs; Yoda1 25 μM, 24 hr): significantly elevated
- TGF-β1 gene expression (human PSCs; Yoda1 25 μM, 24 hr): stimulation of profibrotic TGF-β1
- mean cell area and maximum diameter (mean Feret's diameter-max) (human PSCs; Yoda1 25 μM, 24 hr): significant increase in mean cell area and maximum diameter
- PSCs that had lost their perinuclear fat droplets (human PSCs; Yoda1 25 μM, within 24 hours): ~80%
- fibronectin and collagen type I immunostaining (human PSCs; after 4 days of Yoda1 25 μM): abundant
- PSC viability and membrane integrity (PSCs): did not affect PSC viability and membrane integrity
